In ChEMBL document CHEMBL4296182, “CO-ADD screening of NIH NCI Diversity Set V”:
Converted amounts (≈) assume the structure as drawn.

Tests used:
HEK293 = assay: cells; type: functional; details: Homo sapiens, ATCC CRL1573, HEK293; ASSAY_TEST Inhibition of Cell Viability; detection method Resazurin; Fluorescence (ex560/em590); MEDIA DMEM with 10% FBS; plate type 384well; TC; CORNING #3712; time 18 hr
Staphylococcus aureus = assay: microbe, parasite or virus in culture; details: ATCC 43300, 18 h, ASSAY_TEST Inhibition of Bacterial Growth, detection method Absorption (OD600), MEDIA CAMHB, plate type 384well, NBS, CORNING #3640
Description: Antibacterial activity against Staphylococcus aureus MRSA ATCC 43300 (CO-ADD:GP_020); MIC in CAMBH media, using NBS plates, by OD(600)

Escherichia coli = assay: microbe, parasite or virus in culture; details: ATCC 25922, 18 h, ASSAY_TEST Inhibition of Bacterial Growth, detection method Absorption (OD600), MEDIA CAMHB, plate type 384well, NBS, CORNING #3640
Description: Antibacterial activity against Escherichia coli ATCC 25922 (CO-ADD:GN_001); MIC in CAMBH media using NBS plates, by OD(600)

Klebsiella pneumoniae = assay: microbe, parasite or virus in culture; details: ATCC 700603, 18 h, ASSAY_TEST Inhibition of Bacterial Growth, detection method Absorption (OD600), MEDIA CAMHB, plate type 384well, NBS, CORNING #3640
Description: Antibacterial activity against Klebsiella pneumoniae MDR ATCC 70063 (CO-ADD:GN_003); MIC in CAMBH media using NBS plates, by OD(600)

Pseudomonas aeruginosa = assay: microbe, parasite or virus in culture; details: ATCC 27853, 18 h, ASSAY_TEST Inhibition of Bacterial Growth, detection method Absorption (OD600), MEDIA CAMHB, plate type 384well, NBS, CORNING #3640
Description: Antibacterial activity against Pseudomonas aeruginosa ATCC 27853 (CO-ADD:GN_042); MIC in CAMBH media using NBS plates, by OD(600)

Acinetobacter baumannii = assay: microbe, parasite or virus in culture; details: ATCC 19606, 18 h, ASSAY_TEST Inhibition of Bacterial Growth, detection method Absorption (OD600), MEDIA CAMHB, plate type 384well, NBS, CORNING #3640
Description: Antibacterial activity against Acinetobacter baumannii ATCC 19606 (CO-ADD:GN_034); MIC in CAMBH media using NBS plates, by OD600

Candida albicans = assay: microbe, parasite or virus in culture; details: ATCC 90028, ASSAY_TEST Inhibition of Fungal Growth, detection method Absorption (OD530), plate type 384well, NBS, CORNING #3640
Description: Antifungal activity against Candida albicans ATCC 90028 (CO-ADD:FG_001); MIC in YNB media using NBS plates, by OD630

Description for Cryptococcus neoformans: Antifungal activity against Cryptococcus neoformans H99 ATCC 208821 (CO-ADD:FG_002); MIC in YNB media using NBS plates, by Resazurin OD(600-570)

Row | SMILES | MIC (Cryptococcus neoformans) [µM] | MIC (Staphylococcus aureus) [µM] | MIC (Escherichia coli) [µM] | MIC (Klebsiella pneumoniae) [µM] | MIC (Pseudomonas aeruginosa) [µM] | MIC (Acinetobacter baumannii) [µM] | MIC (Candida albicans) [µM] | CC50 (HEK293) [µM]
1 | CC1(C)CC(=O)CC(C)(C)N1O | > 10 | > 10 | > 10 | > 10 | > 10 | > 10 | > 10 | > 10
2 | CCC(C)c1cnc(CC(C)C)c(=O)n1O (configuration not stated) | > 10 | > 10 | > 10 | > 10 | > 10 | > 10 | > 10 | > 10
3 | Cc1ccnc(NC(c2ccccc2)c2ccc3cccnc3c2O)c1 (configuration not stated) | > 10 | > 10 | > 10 | > 10 | > 10 | > 10 | > 10 | > 10
4 | C1C2CC3C1C3/C2=N\N=C1/C2CC3C(C2)C13 | > 10 | > 10 | > 10 | > 10 | > 10 | > 10 | > 10 | > 10
5 | Cc1ccc(C=C2C(Cl)=C(Cl)C(Cl)=C2Cl)cc1 | > 10 | > 10 | > 10 | > 10 | > 10 | > 10 | > 10 | > 10
6 | C=Cc1cc(OC)c2c(c1)c(=O)oc1c2cc(OC)c2c(O)ccc(C3OC(C)C(O)C(C)(O)C3O)c21 (configuration not stated) | > 10 | 0.156 (≈ 0.0795 µg/mL) | > 10 | > 10 | > 10 | > 10 | > 10 | 1.85
7 | Cc1cc2nc(CS)[nH]c2cc1C | > 10 | > 10 | > 10 | > 10 | > 10 | > 10 | > 10 | > 10
8 | Cn1c(=S)c2nc(SCCN3CCCC3)[nH]c2n(C)c1=O | > 10 | > 10 | 0.156 (≈ 0.0509 µg/mL) | > 10 | > 10 | > 10 | > 10 | > 10
9 | Oc1cccc2nc3ccccc3nc12 | > 10 | > 10 | > 10 | > 10 | > 10 | > 10 | > 10 | > 10
10 | CC(C)c1ccc2c(c1)CCC1C(C)(CN)CCCC21C (configuration not stated) | > 10 | > 10 | > 10 | > 10 | > 10 | > 10 | > 10 | 8.3

The next lines start with results.

Row | MIC (Cryptococcus neoformans) [µM] | MIC (Staphylococcus aureus) [µM] | MIC (Escherichia coli) [µM] | MIC (Klebsiella pneumoniae) [µM] | MIC (Pseudomonas aeruginosa) [µM] | MIC (Acinetobacter baumannii) [µM] | MIC (Candida albicans) [µM] | SMILES | CC50 (HEK293) [µM]
11 | > 10 | > 10 | > 10 | > 10 | > 10 | > 10 | 10 (≈ 2.62 µg/mL) | O=C1N=C(Nc2nc3ccccc3[nH]2)c2ccccc21 | > 10
12 | > 10 | > 10 | > 10 | > 10 | > 10 | > 10 | > 10 | CNc1ncn(-c2c(C)cccc2C)c(=O)n1 | > 10
13 | > 10 | > 10 | > 10 | > 10 | > 10 | > 10 | > 10 | Cn1c2ccccc2c2ccc3c(c21)C(=O)C=CC3=O | > 10
14 | > 10 | > 10 | > 10 | > 10 | > 10 | > 10 | > 10 | CCOC(=O)c1ccc(Nc2sc(C(=O)c3cccc([N+](=O)[O-])c3)c(N)c2C#N)cc1 | > 10
